Data reported in US10913752B2, “Bivalent bromodomain inhibitors and uses thereof” (Dana-Farber Cancer Institute, Inc., priority 2015, dated 2021).
“Also recorded” adds a separate entry of the source.

What was measured:
[1] = system: NMC797 and MV4; 11 cells; experiment: Cellular assays, cell lines not told apart (NMC797 and MV4;11); type: cell-based, human
Source text: Analysis of Cell Viability by ATPLite

[2] = biological target: T1, BRD4(1) (Homo sapiens, UniProt O60885); experiment: BRD4(1) AlphaScreen (competition with biotinylated-JQ1); type: binding; design: human BRD4 covering residues 44-168 (His-BRD4(1)) or 333-460 (His-BRD4(2)); made in house; host or cells: E. coli BL21 (DE3); details: for biochemical activity (in words): biochemical assay, compared with JQ1
Method: BRD4(1) and BRDT(1) AlphaScreen™
Assays were performed with minimal modifications from the manufacturer's protocol (PerkinElmer, USA). All reagents were diluted in AlphaScreen™ buffer (50 mM HEPES, 150 mM NaCl, 0.1% w/v BSA, 0.01% w/v Tween20, pH 7.5) and allowed to equilibrate to room temperature prior to addition to plates. After addition of Alpha beads to master solutions all subsequent steps were performed under low light conditions. […] Plates were spun down at 150×g, 100 nL of compound in DMSO from stock plates were added by pin transfer using a Janus Workstation (PerkinElmer). The streptavidin-coated donor beads (10 μg/ml final) were added as with previous in a 2×, 10 μL volume. Following this addition, plates were sealed with foil to prevent light exposure and evaporation. The plates were spun down again at 150×g.

[3] = biological target: T2, CBP (Homo sapiens, UniProt Q92793); experiment: BROMOscan, CBP; type: binding
T2 construct: purchased DiscoveRx (BROMOscan)
T2 sequence (Q92793 1085-1192 limits assumed): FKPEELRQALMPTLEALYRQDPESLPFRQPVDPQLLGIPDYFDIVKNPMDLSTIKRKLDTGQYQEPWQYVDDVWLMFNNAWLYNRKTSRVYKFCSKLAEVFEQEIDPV
Source text: (§1) To further profile bivalent inhibitors, fluorescent polarization (FP) and phage-based, multiplexed bromodomain displacement assays (BROMOscan™, DiscoveRx) were utilized.

[4] = biological target: T3, EP300 (Homo sapiens, UniProt Q09472); experiment: BROMOscan, EP300; type: binding
T3 construct: purchased DiscoveRx (BROMOscan)
T3 sequence (Q09472 1049-1156 limits assumed): as the sequence (Q92793 1085-1192 limits assumed) above, with N47S, V73I, F93Y, A98S counted along it
Source text: as §1

[5] = biological target: BRD4(2) (Homo sapiens, UniProt O60885); experiment: BROMOscan, BRD4(2)
[6] = system: MYC; experiment: Immunoblot for MYC in MV4;11 cells; type: cell-based, human
Method: (§2) Cells were lysed with RIPA buffer supplemented with protease inhibitor cocktail (Roche) and 0.1% benzonase (Novagen) on ice for 20 minutes. The lysates were spun at 20,000×g for 15 minutes at 4° C. and protein concentration was determined by a BCA assay (Pierce). The following antibodies were used in this study: BRD4 (Bethyl labs), c-MYC and actin (both Santa Cruz), HEXIM1, PARP, cleaved caspase 3 (all Cell Signaling Technology). Blots were imaged using fluorescence-labeled secondary antibodies (LI-COR) on the OdysseyCLxImager (LI-COR).

[7] = biological target: BRD4(1,2) (Homo sapiens, UniProt O60885); experiment: BROMOscan, tandem bromodomain construct
[8] = biological target: BRD4(full) (Homo sapiens, UniProt O60885); experiment: BROMOscan, full length protein
[9] = biological target: T1, BRD4(1); experiment: BROMOscan phage-based bromodomain displacement, BRD4(1)
[10] = biological target: T4, WDR9(2) (Homo sapiens, UniProt Q9NSI6); experiment: BROMOscan, WDR9(2); type: binding
T4 construct: purchased DiscoveRx (BROMOscan)
T4 sequence (Q9NSI6 1313-1418 limits assumed): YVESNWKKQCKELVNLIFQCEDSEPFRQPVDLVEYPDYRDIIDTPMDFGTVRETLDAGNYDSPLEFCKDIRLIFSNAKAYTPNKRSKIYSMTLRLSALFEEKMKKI
Source text: as §1

[11] = biological target: T5, BRD4 (Homo sapiens, UniProt O60885); experiment: Immunoblot for BRD4 protein stability (degradation); type: cell-based; details: immunoblots following compound treatment
T5 construct: endogenous in cells; host or cells: MV4;11
Method: as §2

[12] = system: HEXIM1; experiment: Immunoblot for HEXIM1 in MV4;11 cells; type: cell-based, human
Method: as §2

[13] = system: 55 ligand receptors, ion channels, and transport proteins; experiment: Receptor profiling (ExpresSProfile, CEREP); details: 1 μM, more than 50 tested
[14] = system: MV4; 11 human leukemia cells (mCherry+, Luciferase+); experiment: Disseminated leukemia xenograft, first study; design: mCherry+ leukemic burden in bone marrow by FACS: dose or concentration left out as unconfirmed
[15] = biological target: T6, neurokinin NK2 receptor (Homo sapiens, UniProt P21452); experiment: Receptor profiling, [Nleu-10]-NKA radioligand binding; details: 1 μM
T6 construct: purchased CEREP (Eurofins, Paris, France), ExpresSProfile
T6 sequence (P21452 whole entry): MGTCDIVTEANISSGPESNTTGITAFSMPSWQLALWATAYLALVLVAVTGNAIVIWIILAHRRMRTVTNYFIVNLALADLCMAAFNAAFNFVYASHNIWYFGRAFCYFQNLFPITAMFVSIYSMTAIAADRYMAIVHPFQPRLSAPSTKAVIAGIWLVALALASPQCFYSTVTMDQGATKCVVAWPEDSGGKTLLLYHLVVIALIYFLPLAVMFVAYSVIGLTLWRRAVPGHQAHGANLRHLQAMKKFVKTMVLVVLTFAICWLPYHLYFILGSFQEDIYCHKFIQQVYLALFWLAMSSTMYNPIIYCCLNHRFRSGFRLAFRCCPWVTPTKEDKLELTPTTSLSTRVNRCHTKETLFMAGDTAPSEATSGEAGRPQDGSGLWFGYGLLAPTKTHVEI
Source text: Receptor Profiling Studies

[16] = system: BRD4(1^MUT,2) (N140A); experiment: Size-exclusion chromatography, first bromodomain mutant; details: half an equivalence of MT1
[17] = system: MV4; 11 human leukemia cells (mCherry+, Luciferase+); experiment: Disseminated leukemia xenograft, second (survival) study; type: in vivo, mice (NSG); details: 44.2 μmol/kg
Source text: A drug holiday was given for 2 days (day 29-30), Treatment resumed for 5 more days (31-35) and then ended. Mice were monitored and sacrificed when hind-limb paralysis was evident or body weight dropped by 15%.

[18] = Mouse pharmacokinetics (cassette and single PK); type: in vivo, CD1 mice; details: mice
Method: FIGS. 9a-9b. Cassette PK properties of bivalent inhibitors. FIGS. 9a and 9b show PK parameters of mice 5-in-1 cassette PK. Five compounds (1 mg/kg) were intravenously administered to CD1 mice (n=3).
FIGS. 10a-10b. Individual PK properties of bivalent inhibitors. […] (6S+2S)-PEG0 (50 mg/kg) was intraperitoneally administered to CD1 mice (n=3). […] (6S+6S)-PEG7 (50 mg/kg) was intraperitoneally administered to CD1 mice (n=3).

[19] = system: wild-type BRD4(1,2); experiment: Size-exclusion chromatography, wild-type tandem construct; details: half an equivalence of MT1
[20] = system: BRD4(1,2^MUT) (N433A); experiment: Size-exclusion chromatography, second bromodomain mutant; details: half an equivalence of MT1
[21] = system: BRD2, 3 and 4; experiment: Cellular thermal shift assay (CETSA); type: cell-based, human; details: MV411 cells
Method: Cellular Thermal Shift Assay (CETSA)
Compound or DMSO was incubated with 4×10^6 MV411 cells for 1 hr at 37° C. Cells were put on ice and washed with PBS and transferred to PCR tubes. Supernatant was aspirated to leave ˜5 μl in each tube and then cells were heat shocked in a thermocycler at 48.5° C. for 3 min to denature proteins. Cells were then allowed to cool at RT for 3 min and then resuspended in 35 μl lysis buffer (50 mM Tris-HCl pH 7.5, 5% glycerol, 100 mM NaCl, 1.5 mM MgCl, 0.2% NP-40+protease inhibitor cocktail (Halt)) and freeze-thawed 3 times with liquid nitrogen to lyse cells. Lysates were then spun at 20,000×g for 20 min to clarify and pellet aggregated protein. Supernatant was boiled with LDS and split into three samples for immunoblotting. Bands were quantified using Image Studio™ software and plotted using GraphPad PRISM v6 as triplicate means±SEM.

[22] = system: MV4; 11 cells; experiment: Immunoblot for caspase-3 and PARP cleavage in MV4;11 cells; type: cell-based, human; details: 100 nM
Method: as §2

[23] = system: NMC797 cells (BRD4-rearranged NUT midline carcinoma); experiment: cells; details: Homo sapiens, NMC-797, 72 h, read-out: IC50, proliferation
Method: Cells were cultured at 37° C. with 5% CO2 in either DMEM (NMC797) or RPMI1640 (MV4; 11) supplemented with 10% FBS (Sigma), 100 U/mL penicillin, 100 μg/mL streptomycin, and 2 mM glutamine (Gibco). Cells tested negative for mycoplasma using the MycoAlert™ kit (Lonza).
Cells were plated at 1000 cells/well in 50 μL/well of media in 384 well white culture plates (Thermo). NMC797 cells were allowed to adhere overnight before adding 100 μL of compound in DMSO from compound stock plates using a Janus Workstation pin tool (PerkinElmer, USA). […] Cell viability was read out using the ATPlite kit (PerkinElmer). Plates were brought to room temperature prior to reagent addition. Lyophilized powder was resuspended in lysis buffer and diluted 1:2 with DI water.

## COc1cc2c(cc1-c1c(C)noc1C)ncc1[nH]c(=O)n([C@H](C)c3ccccn3)c12 [I-BET151, reference compound]
[1]; 11, compared with JQ1
  cellular activity (in words): comparable performance to JQ1
[2]
  biochemical activity (in words): comparable performance to JQ1

## COC(=O)C[C@@H]1N=C(c2ccc(Cl)cc2)c2c(sc(C(=O)NCCOCCNC(=O)c3sc4c(c3C)C(c3ccc(Cl)cc3)=N[C@@H](CC(=O)OC)c3nnc(C)n3-4)c2C)-n2c(C)nnc21 [(2+2)-PEG1, Dimethyl 2,2′-((6S,6′S)-(((oxybis(ethane-2,1-diyl))bis(azanediyl))bis(carbonyl))bis(4-(4-chlorophenyl)-3,9-dimethyl-6H-thieno[3,2-f][1,2,4]triazolo[4,3-a][1,4]diazepine-2,6-diyl))diacetate]
[1]; 11, compared with JQ1
  cellular activity (in words): not properly reflected in cellular activity
[1]; 11, compared with JQ1, listed as (2+2) homodimer
  cellular activity (in words): did not translate into cellular activity
[2]; AlphaScreen, BRD4(1)
  IC50: 1.17 nM
[2]; BRD4(1), relative to monomeric inhibitor
  fold increase in biochemical potency / inhibitory activity: 20 fold

## COC(=O)C[C@@H]1N=C(c2ccc(Cl)cc2)c2c(sc(C(=O)NCCOCCNC(=O)C[C@@H]3N=C(c4ccc(Cl)cc4)c4c(sc(C)c4C)-n4c(C)nnc43)c2C)-n2c(C)nnc21 [(6S+2S)-PEG1, Methyl 2-((S)-4-(4-chlorophenyl)-2-((2-(2-(2-((S)-4-(4-chlorophenyl)-2,3,9-trimethyl-6H-thieno[3,2-f][1,2,4]triazolo[4,3-a][1,4]diazepin-6-yl)acetamido)ethoxy)ethyl)carbamoyl)-3,9-dimethyl-6H-thieno[3,2-f][1,2,4]triazolo[4,3-a][1,4]diazepin-6-yl)acetate]
[3]
  Kd: 2500 nM
[4]
  Kd: 5000 nM
[5]
  displacement of phage (in words): picomolar displacement
[6]; 10 nM
  time of maximum effect on MYC: 2 h
[6]; within two hours
  lowest concentration with MYC downregulation: 10 nM
[7]
  displacement of phage (in words): picomolar displacement
[8]
  displacement of phage (in words): picomolar displacement
[1]; 11, compared with JQ1
  cellular activity (in words): single-digit to sub-nanomolar activity
[9]
  displacement of phage (in words): picomolar displacement
[2]
  biochemical activity (in words): single-digit to sub-nanomolar activity
[10]
  Kd: 9900 nM
[11]
  effect on BRD4 protein stability: No effect on protein stability
[12]
  time points of HEXIM1 upregulation: 4 to 24 h

## Methyl 2-((S)-4-(4-chlorophenyl)-2-((2-(2-((S)-4-(4-chlorophenyl)-2,3,9-trimethyl-6H-thieno[3,2-f][1,2,4]triazolo[4,3-a][1,4]diazepin-6-yl)acetamido)ethyl)carbamoyl)-3,9-dimethyl-6H-thieno[3,2-f][1,2,4]triazolo[4,3-a][1,4]diazepin-6-yl)acetate [MT1]
[13]
  off-target effects on receptors and ion channels: limited activity; also recorded: few off-target effects
[14]; half an equivalence (22.1 μmol/kg), 14 days, compared to vehicle or JQ1
  leukemic burden by bioluminescence imaging: significantly reduced leukemic burden
[14]; post-mortem, MT1 at 22.1
  mCherry+ leukemic burden in bone marrow by FACS: significantly decreased
[15]
  inhibition of radioligand agonist binding: only partial inhibition of binding
[16]
  dimerization by SEC: partial dimerization
[17]
  body weight after drug withdrawal: recovered body weight after drug was withdrawn
[17]; compared to JQ1
  disease monitored by bioluminescence: significantly reduced
[17]; compared to vehicle or JQ1
  overall survival: significantly increased overall survival
[17]; of 11 mice
  mice sacrificed due to emaciation from drug toxicity: two
[18]
  PK properties (in words): improved PK properties
  exposure in vivo (in words): highly prolonged exposure in vivo
[19]
  dimerization by SEC: absence of dimerization
[1]; 11, compared with JQ1
  cellular activity (in words): translated well in cellular activities
[20]
  dimerization by SEC: Complete dimerization
[21]
  concentrations needed for stabilization, compared with JQ1: lower concentrations
[21]; 48.5° C. heat shock
  thermal stabilization of BET proteins: stabilized BRD2, 3 and 4 in a concentration dependent manner
[22]
  apoptosis by caspase-3 and PARP cleavage: Significant apoptosis

## Cc1sc2c(c1C)C(c1ccc(Cl)cc1)=N[C@@H](CC(=O)OC(C)(C)C)c1nnc(C)n1-2 [JQ1, reference compound]
[23]
  IC50: 69 nM

## COC(=O)C[C@@H]1N=C(c2ccc(Cl)cc2)c2c(sc(C(=O)NCCNC(=O)C[C@@H]3N=C(c4ccc(Cl)cc4)c4c(sc(C)c4C)-n4c(C)nnc43)c2C)-n2c(C)nnc21 [(6+6)-PEG1, Methyl 2-((S)-4-(4-chlorophenyl)-2-((2-(2-((S)-4-(4-chlorophenyl)-2,3,9-trimethyl-6H-thieno[3,2-f][1,2,4]triazolo[4,3-a][1,4]diazepin-6-yl)acetamido)ethyl)carbamoyl)-3,9-dimethyl-6H-thieno[3,2-f][1,2,4]triazolo[4,3-a][1,4]diazepin-6-yl)acetate]
[1]; 11, compared with JQ1
  cellular activity (in words): did not show improved activity
[1]; 11, compared with JQ1, listed as (6+6) homodimer
  cellular activity (in words): did not increase biochemical or cellular activity
[2]
  biochemical activity (in words): did not show improved activity
[2]; listed as (6+6) homodimer
  biochemical activity (in words): did not increase biochemical or cellular activity

## COC(=O)C[C@@H]1N=C(c2ccc(Cl)cc2)c2c(sc(C(=O)NCCNC(=O)C[C@@H]3N=C(c4ccc(Cl)cc4)c4c(sc(C)c4C)-n4c(C)nnc43)c2C)-n2c(C)nnc21 [(6S+2S)-PEG0, Methyl 2-((S)-4-(4-chlorophenyl)-2-((2-(2-((S)-4-(4-chlorophenyl)-2,3,9-trimethyl-6H-thieno[3,2-f][1,2,4]triazolo[4,3-a][1,4]diazepin-6-yl)acetamido)ethyl)carbamoyl)-3,9-dimethyl-6H-thieno[3,2-f][1,2,4]triazolo[4,3-a][1,4]diazepin-6-yl)acetate]
[18]
  PK properties (in words): comparable PK properties to MT1
